Assay results reported in US20060148023A1, “Affinity labeling of serine proteases for simultaneous detection of multiple serine protease activity levels” (priority 2001, published 2006).

Key:
Format in all cases: cell-based
Details in all cases: for SFCK RFU: red, ex 590 nm/em 620 nm; for SFCK RFU / FLCK RFU: average of 4 wells; for FLCK RFU: green, ex 488 nm/em 535 nm
Jurkat cells = experiment: FLISP staining of Jurkat cells, fluorescence plate reader
Protocol: (§1) Preparation of reagents: Fluorescent inhibitors of serine proteases (FLISP) reagents, 5(6)-Carboxyfluoresceinyl-L-phenylalanylchloromethyl ketone (FFCK), 5(6)-carboxyfluoresceinyl-L-leucylchloromethyl ketone (FLCK), Sulforhodaminyl 101 -L-phenylalanylchloromethyl ketone (SFCK) and Sulforhodaminyl 101 -L-leucylchloromethyl ketone (SLCK) are dissolved initially in dimethyl sulfoxide (DMSO; Sigma) to yield a 10 mM concentration. Aliquots are made from this stock solution and stored frozen at −20° C. protected from light. The reagent stock of the FLCK is then diluted directly into the cell culture media to give a 1× working reagent concentration of 20 μM and the reagent stock of the SFCK is then diluted directly into the cell culture media to give a 1× working reagent concentration of 5 μM. Dilution of the reagent into aqueous (cell culture) media is done just prior to cell exposure to preserve the labile chloromethyl ketone reactivity of FLISP reagent.
(§2) Cells: Jurkat, HL-60 and U937 cells were obtained from American Type Culture Collection (ATCC; Rockville, Md.). They were cultured in 25 mL FALCON flasks (Becton Dickinson Co., Franklin Lakes, N.J.) using RPMI 1640 supplemented with 10% fetal calf serum, 100 units/mL penicillin, […] and 2 mM L-glutamine (all from Gibco/BRL Life Technologies, Inc., Grand Island, N.Y.) in a humidified incubator set to maintain 37.5° C. and 5 % CO2. At the onset of experiments, the cells were at an exponential and asynchronous growth phase with fewer than 5×10^5 cells per/mL in culture. To induce apoptosis the cells were treated with 0.15 μM DNA topoisomerase I inhibitor camptothecin (CPT; Sigma Chemical Co., St. Louis, Mo.) for 3 hours.
(§3) Cell staining and evaluation by fluorescence plate reader: The Jurkat, HL-60 and U937 cells from the untreated or CPT treated cultures were centrifuged (200 g, 5 min) and resuspended in PBS at approximately 10^6 cells per 5 ml volume. FLISP staining solutions were prepared by diluting 10 μL of a green 10 mM FLISP reagent stock solution (FLCK) and 2.5 μL of a red 10 mM FLISP reagent stock solution (SFCK) into 5 mL of culture medium yielding a final green FLISP concentration of 20 μM and a final red FLISP concentration of 5 μM. When detecting multiple serine proteases use different CMK labeled peptides i.e. FLCK and SFCK or FFCK and SLCK. The FLISP staining solution was removed by washing the cells in wash buffer (0.5% BSA in PBS +0.05% NaN3, pH 7.4) and centrifuging for 5 minutes at 200 g. The washing step was repeated two more times with fresh wash buffer. After the final wash the cells were resuspended in 5 mL wash buffer and 100 μL per were added to a 96 well black microtiter plate (4 wells were used for each sample). Green and red fluorescence were measured simultaneously on a Spectra MAX Gemini XS fluorescence plate reader (Molecular Devices). Green cell fluorescence (FLCK) was then measured using a 488 nm excitation, 535 nm emission with a 515 nm cutoff. Red cell fluorescence (SFCK) was then measured using a 590 nm excitation, 620 emission with a 610 nm cutoff.

U937 cells = experiment: FLISP staining of U937 cells, fluorescence plate reader
Protocol: as §1, §2, §3

HL-60 cells = experiment: FLISP staining of HL-60 cells, fluorescence plate reader
Protocol: as §1, §2, §3

Molecule | SFCK RFU (Jurkat cells; Jurkat I (induced, apoptotic; 0.15 μM CPT 3 h), 5 μM) | SFCK RFU (Jurkat cells; Jurkat NI (non-induced), 5 μM) | SFCK Ratio of I/NI (Jurkat cells; Jurkat, induced/non-induced, 5 μM) | SFCK Ratio of I/NI (U937 cells; U937, induced/non-induced, 5 μM) | SFCK RFU (U937 cells; U937 I (induced, apoptotic; 0.15 μM CPT 3 h), 5 μM) | SFCK RFU (U937 cells; U937 NI (non-induced), 5 μM) | SFCK Ratio of I/NI (HL-60 cells; HL-60, induced/non-induced, 5 μM) | SFCK RFU (HL-60 cells; HL-60 I (induced, apoptotic; 0.15 μM CPT 3 h), 5 μM) | SFCK RFU (HL-60 cells; HL-60 NI (non-induced), 5 μM) | FLCK RFU (Jurkat cells; Jurkat I (induced, apoptotic; 0.15 μM CPT 3 h), 20 μM) | FLCK RFU (Jurkat cells; Jurkat NI (non-induced), 20 μM) | FLCK Ratio of I/NI (Jurkat cells; Jurkat, induced/non-induced, 20 μM) | FLCK Ratio of I/NI (U937 cells; U937, induced/non-induced, 20 μM) | FLCK RFU (U937 cells; U937 I (induced, apoptotic; 0.15 μM CPT 3 h), 20 μM) | FLCK RFU (U937 cells; U937 NI (non-induced), 20 μM) | FLCK Ratio of I/NI (HL-60 cells; HL-60, induced/non-induced, 20 μM) | FLCK RFU (HL-60 cells; HL-60 I (induced, apoptotic; 0.15 μM CPT 3 h), 20 μM) | FLCK RFU (HL-60 cells; HL-60 NI (non-induced), 20 μM)
CCN(CC)c1ccc2c(-c3ccc(S(=O)(=O)NC(Cc4ccccc4)C(=O)CCl)cc3S(=O)(=O)[O-])c3ccc(=[N+](CC)CC)cc-3oc2c1 [SFCK, Sulforhodaminyl-L-phenylalanylchloromethyl ketone] | 74.348 RFU | 30.596 RFU | 2.43 | 1.82 | 44.245 RFU | 24.341 RFU | 1.28 | 49.045 RFU | 38.301 RFU |  |  |  |  |  |  |  |  | 
5(6)-carboxyfluoresceinyl-L-leucylchloromethyl ketone [FLCK] |  |  |  |  |  |  |  |  |  | 13.291 RFU | 3.702 RFU | 3.59 | 3.70 | 8.208 RFU | 2.218 RFU | 1.59 | 7.552 RFU | 4.748 RFU
